Experimental data as given in patent US12673975B2, “Cyclic peptide, cell scaffold material, cell separating material, and medium” (FUJIFILM Corporation, priority 2019, dated 2026).
Like-named read-outs stand apart in the source and are kept apart here. Starred links: 1 amine or outer side, 2 acyl side, 3 side chain; linkers in the order of their positions; H or OH if unused. Positions of bridges follow the written chain, without caps; N, C: chain ends. Non-standard residues stand in square brackets, D forms with d. Residues, ends and D or L forms follow the SMILES beside them. hTyr = N[C@@H](CCc1ccc(O)cc1)C(=O)O; hCys = N[C@@H](CCS)C(=O)O; hSer = N[C@@H](CCO)C(=O)O; Dab = NCC[C@H](N)C(=O)O; Dap = NC[C@H](N)C(=O)O; X1 = O=C(C[*:2])[*:1]; X2 = O=C(C[*:1])[*:2]

What was measured:
[1] = Evaluation of molecule stability (alkali treatment, residual rate by LC/MS); type: physicochemical; conditions: for Stability (molecule stability, residual rate of the cyclic peptide rank): alkali treatment, residual rate by LC/MS; for Performance evaluation: Stability (residual rate of cyclic peptide after alkali treatment): 500 μM peptide aqueous solution plus equivalent of 1 M sodium hydroxide, 15° C., 3 hours, LC/MS peak area
Experimental: The molecule stability of the cyclic peptide was evaluated by analyzing the alkali-treated cyclic peptide aqueous solution by liquid chromatography mass spectroscopy (LC/MS).
The alkali treatment was carried out by the following method. A 500 μM cyclic peptide aqueous solution was prepared, an equivalent of 1 M sodium hydroxide aqueous solution was added to this aqueous solution, and the resultant mixture was incubated at 15° C. for 3 hours to obtain an alkali-treated cyclic peptide aqueous solution. The cyclic peptide residual rate was calculated by setting the total area of all peaks of the cyclic peptide before alkali treatment in LC/MS to 100% and determining the proportion of the total area of all peaks in LC/MS of the alkali-treated cyclic peptide aqueous solution, and the molecule stability was evaluated according to the following evaluation standards. It is preferable that the evaluation result satisfies the evaluation standard A, B, or C.
The conditions of the LC/MS used for the evaluation of molecule stability were set as follows. • LC apparatus: Prominence series (pump, column oven, autosampler, detector) (manufactured by Shimadzu Corporation) • MS detector: LC/MS2010EV (manufactured by Shimadzu Corporation) • Column: Cadenza CD-C18, inner diameter 2.0 mm×length 250 mm, particle size: 3 μm (manufactured by Imtakt Corporation) • Eluent A: a solution (pH 3) containing 10 mM ammonium formate as a solute, where the solvent is 100% water. • Eluent B: a solution (pH 3) containing 10 mM ammonium formate as a solute, where the solvent is acetonitrile/water=90/10. • Flow rate: 0.2 mL/min • Injection volume: 4 μL • Gradient: 0% to 30%: Eluent B (0 to 30 minutes), 100%: Eluent B (30 to 40 minutes), 0%: Eluent B (40 to 60 minutes) • Column temperature: 45° C. • Ionization method: electrospray ionization (ESI) positive, ESI negative

[2] = target: human integrin αvβ5 (Homo sapiens, UniProt P06756+P18084); assay: Evaluation of integrin binding property (surface plasmon resonance, Biacore 3000, immobilized cyclic peptide)
Sequence of human integrin αvβ5 (P06756 31-1048): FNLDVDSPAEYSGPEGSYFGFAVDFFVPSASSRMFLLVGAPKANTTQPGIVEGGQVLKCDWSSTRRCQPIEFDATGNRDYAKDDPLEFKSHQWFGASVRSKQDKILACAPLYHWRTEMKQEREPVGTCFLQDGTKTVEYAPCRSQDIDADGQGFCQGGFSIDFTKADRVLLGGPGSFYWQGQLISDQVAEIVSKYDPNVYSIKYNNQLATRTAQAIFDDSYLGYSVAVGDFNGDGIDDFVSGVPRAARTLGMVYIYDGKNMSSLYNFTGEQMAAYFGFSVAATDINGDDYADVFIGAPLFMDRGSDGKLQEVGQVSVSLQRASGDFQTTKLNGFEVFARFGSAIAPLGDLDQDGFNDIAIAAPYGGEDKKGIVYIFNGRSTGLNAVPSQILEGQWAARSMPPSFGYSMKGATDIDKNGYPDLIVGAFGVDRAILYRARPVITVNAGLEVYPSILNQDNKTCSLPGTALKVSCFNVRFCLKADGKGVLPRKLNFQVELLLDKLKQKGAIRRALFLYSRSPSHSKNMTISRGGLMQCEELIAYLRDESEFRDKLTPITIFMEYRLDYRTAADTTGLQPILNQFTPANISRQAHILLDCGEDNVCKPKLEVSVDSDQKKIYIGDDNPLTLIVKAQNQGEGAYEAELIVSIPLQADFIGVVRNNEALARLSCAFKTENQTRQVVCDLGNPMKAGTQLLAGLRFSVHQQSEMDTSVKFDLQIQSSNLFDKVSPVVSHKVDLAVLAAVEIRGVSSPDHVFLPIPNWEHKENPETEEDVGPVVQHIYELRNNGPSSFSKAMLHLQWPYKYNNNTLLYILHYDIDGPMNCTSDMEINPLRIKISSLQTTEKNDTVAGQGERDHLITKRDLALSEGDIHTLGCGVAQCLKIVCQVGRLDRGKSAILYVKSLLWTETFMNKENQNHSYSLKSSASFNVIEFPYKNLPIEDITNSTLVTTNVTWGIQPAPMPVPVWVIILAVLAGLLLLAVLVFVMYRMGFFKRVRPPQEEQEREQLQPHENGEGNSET
Sequence of human integrin αvβ5 (P18084 24-799): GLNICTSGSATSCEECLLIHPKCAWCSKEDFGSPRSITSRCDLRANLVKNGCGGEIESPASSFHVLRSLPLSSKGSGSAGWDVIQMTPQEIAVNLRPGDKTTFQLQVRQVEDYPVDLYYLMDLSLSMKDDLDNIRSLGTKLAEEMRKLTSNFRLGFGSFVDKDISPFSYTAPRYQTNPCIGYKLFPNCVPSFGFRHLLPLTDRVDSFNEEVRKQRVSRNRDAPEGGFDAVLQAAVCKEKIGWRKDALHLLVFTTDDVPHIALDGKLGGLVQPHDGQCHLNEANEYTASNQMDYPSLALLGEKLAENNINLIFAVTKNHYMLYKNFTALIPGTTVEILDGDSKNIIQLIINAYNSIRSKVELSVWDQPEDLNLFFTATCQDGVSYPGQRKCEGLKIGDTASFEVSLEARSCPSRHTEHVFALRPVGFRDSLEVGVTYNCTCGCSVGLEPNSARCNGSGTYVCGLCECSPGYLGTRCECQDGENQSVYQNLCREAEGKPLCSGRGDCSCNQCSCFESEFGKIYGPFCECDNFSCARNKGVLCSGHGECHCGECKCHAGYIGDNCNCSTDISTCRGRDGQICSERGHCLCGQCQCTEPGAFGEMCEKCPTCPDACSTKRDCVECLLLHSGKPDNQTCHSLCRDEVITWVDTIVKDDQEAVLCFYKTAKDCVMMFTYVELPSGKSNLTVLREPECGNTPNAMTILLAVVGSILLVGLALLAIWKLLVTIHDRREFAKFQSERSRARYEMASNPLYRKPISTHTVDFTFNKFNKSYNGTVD
Experimental: A commercially available CMS (a carboxymethyl dextran introduction type, manufactured by GE Healthcare) sensor chip was set in Biacore 3000, which is a surface plasmon resonance apparatus manufactured by GE Healthcare, the sensor was stabilized at a flow rate of 10 μL/min of a HEPES (4-(2-hydroxyethyl)-1-piperazineethanesulfonic acid) buffer solution (20 mM HEPES-HCl, 150 mM NaCl, pH 7.4) for surface plasmon resonance (SPR), and 70 μL of a mixed aqueous solution of 0.2 M 1-(3-dimethylaminopropyl)-3-ethylcarbodiimide (EDC) and 0.04 M N-hydroxysuccinimide (NHS) was added thereto. Here, the concentration unit M represents mol/L, and the same applies hereinafter. Then, 20 μL of the sample solution of each of the above cyclic peptides diluted to 0.2 g/L with the HEPES buffer solution was supplied to the sensor chip, blocking treatment was subsequently carried out with an ethanolamine solution, and washing was carried out with a sodium hydroxide aqueous solution, whereby immobilization was carried out. However, only for the cyclic peptides 125, 126, and 127, in which the number of lysine residues having an amino group as the immobilizing functional group was zero, the amount of the sample solution to be supplied to the sensor chip was set to 500 μL instead of 20 μL. Further, 70 μL of the mixed aqueous solution of 0.2 M EDC and 0.04 M NHS was added to another flow channel of the same sensor chip without immobilizing the sample, and then blocking treatment and washing treatment were carried out. Hereinafter, the obtained immobilization-treated sensor chip is referred to as an “immobilization-treated sensor chip A”.
After adding human integrin αvβ5 for 10 minutes at 25° C., which was diluted to 30 nM using a HEPES buffer solution to which magnesium chloride was added to 5 mM, in each flow channel of the immobilization-treated sensor chip A prepared in (1) above, the same HEPES buffer solution (containing 5 mM magnesium chloride) was allowed to flow as a running buffer for 30 minutes, and measurement was carried out with Biacore 3000. Then, a regeneration treatment of removing human integrin αvβ5 was carried out by allowing a 0.5 M EDTA aqueous solution to flow through each flow channel for 10 minutes. Further, the above-described measurement process consisting of adding integrin for 10 minutes, allowing a running buffer to flow for 30 minutes, carrying out measurement with Biacore 3000, and carrying out regeneration treatment with 0.5 M EDTA aqueous solution was carried out in the same manner for 100 nM human integrin αvβ5, 300 nM human integrin αvβ5, and 1,000 nM human integrin αvβ5. Dissociation constant between the cyclic peptide and human integrin αvβ5 was calculated from the difference between the value measured by Biacore 3000 in the flow channel immobilized with the cyclic peptide and the value measured by Biacore 3000 in the flow channel unimmobilized with the cyclic peptide, in a case where each concentration of human integrin αvβ5 was allowed to flow, and the integrin binding property was evaluated according to the following evaluation standards. It is preferable that the evaluation result satisfies the evaluation standard A, B, or C.

[3] = surface plasmon resonance, immobilized cyclic peptide, human integrin αvβ5, read-out: Binding activity (integrin binding property, dissociation constant rank)
[4] = SPR, 25° C., HEPES buffer with 5 mM magnesium chloride, integrin 30-1,000 nM, read-out: Performance evaluation: Binding activity (dissociation constant between the cyclic peptide and human integrin αvβ5)

CC[C@H](C)[C@@H]1NC(=O)[C@@H](NC(=O)[C@H](C)N)CCSCC(=O)NCC[C@@H](C(=O)NCC(=O)O)NC(=O)[C@H](C)NC(=O)[C@H](Cc2ccccc2)NC(=O)[C@H](CO)NC(=O)[C@H](CC(=O)O)NC(=O)CNC(=O)[C@H](CCCNC(=N)N)NC(=O)[C@@H]2CCCN2C1=O [Cyclic peptide 127, A-(Hcy)-IPRGDSFA(Dab(acetyl))G] (H-A[hCys]IPRGDSFA[Dab]G-OH; linker 2-11 via X2)
Stability (molecule stability, residual rate of the cyclic peptide rank) [1]: A (The residual rate of the cyclic peptide is 70% or more.) | Kd [2, 3]: < 50 nM

C[C@H](NC(=O)[C@H](CCCCN)NC(=O)[C@H](CCCCN)NC(=O)[C@@H](N)CCCCN)C(=O)N[C@H]1CCSCC(=O)NCC[C@@H](C(=O)N[C@@H](CC(=O)O)C(=O)O)NC(=O)[C@H](CCCNC(=N)N)NC(=O)[C@H](Cc2ccc(O)cc2)NC(=O)[C@H](CO)NC(=O)[C@H](CC(=O)O)NC(=O)CNC(=O)[C@H](CCCNC(=N)N)NC(=O)[C@@H]2CCCN2C(=O)[C@H](CCC(=O)O)NC1=O [Cyclic peptide 33, KKKA-(Hcy)-EPRGDSYR(Dab(acetyl))D] (H-KKKA[hCys]EPRGDSYR[Dab]D-OH; linker 5-14 via X2)
Performance evaluation: Stability (residual rate of cyclic peptide after alkali treatment) [1]: A (The residual rate of the cyclic peptide is 70% or more.) | Kd [2, 4]: 100 to 200 nM

CC[C@H](C)[C@@H]1NC(=O)[C@@H](NC(=O)[C@H](CCCCN)NC(=O)[C@H](CCCCN)NC(=O)[C@@H](N)CCCCN)CCSCC(=O)NCC[C@@H](C(=O)O)NC(=O)[C@H](Cc2ccccc2)NC(=O)[C@H](CC(N)=O)NC(=O)[C@H](CC(=O)O)NC(=O)CNC(=O)[C@H](CCCNC(=N)N)NC(=O)[C@@H]2CCCN2C1=O [Cyclic peptide 13, KKK-(Hcy)-IPRGDNF(Dab(acetyl))] (H-KKK[hCys]IPRGDNF[Dab]-OH; linker 4-12 via X2)
Performance evaluation: Stability (residual rate of cyclic peptide after alkali treatment) [1]: A (The residual rate of the cyclic peptide is 70% or more.) | Kd [2, 4]: < 50 nM

CC[C@H](C)[C@@H]1NC(=O)[C@@H](NC(=O)[C@H](C)NC(=O)[C@H](CCCCN)NC(=O)[C@H](CCCCN)NC(=O)[C@@H](N)CCCCN)CCSCC(=O)NCC[C@@H](C(=O)N[C@@H](C)C(=O)O)NC(=O)[C@H](CO)NC(=O)[C@H](Cc2ccccc2)NC(=O)[C@H]([C@@H](C)O)NC(=O)[C@H](CC(=O)O)NC(=O)CNC(=O)[C@H](CCCNC(=N)N)NC(=O)[C@@H]2CCCN2C1=O [Cyclic peptide 83, KKKA-(Hcy)-IPRGDTFS(Dab(acetyl))A] (H-KKKA[hCys]IPRGDTFS[Dab]A-OH; linker 5-14 via X2)
Performance evaluation: Stability (residual rate of cyclic peptide after alkali treatment) [1]: A (The residual rate of the cyclic peptide is 70% or more.) | Kd [2, 4]: < 50 nM

C[C@H](NC(=O)[C@H](CCCCN)NC(=O)[C@H](CCCCN)NC(=O)[C@@H](N)CCCCN)C(=O)N[C@H]1CCSCC(=O)NCC[C@@H](C(=O)N[C@@H](CC(=O)O)C(=O)O)NC(=O)[C@H](CCC(=O)O)NC(=O)[C@H](Cc2ccc(O)cc2)NC(=O)[C@H](CC(N)=O)NC(=O)[C@H](CC(=O)O)NC(=O)CNC(=O)[C@H](CCCNC(=N)N)NC(=O)[C@@H]2CCCN2C(=O)[C@H](CCC(=O)O)NC1=O [Cyclic peptide 36, KKKA-(Hcy)-EPRGDNYE(Dab(acetyl))D] (H-KKKA[hCys]EPRGDNYE[Dab]D-OH; linker 5-14 via X2)
Performance evaluation: Stability (residual rate of cyclic peptide after alkali treatment) [1]: A (The residual rate of the cyclic peptide is 70% or more.) | Kd [2, 4]: 50 to 100 nM

CC[C@H](C)[C@@H]1NC(=O)[C@@H](NC(=O)[C@H](C)NC(=O)[C@H](CCCCN)NC(=O)[C@H](CCCCN)NC(=O)[C@@H](N)CCCCN)CCSCC(=O)NCC[C@@H](C(=O)N[C@@H](C)C(=O)O)NC(=O)[C@H]([C@@H](C)O)NC(=O)[C@H](Cc2ccccc2)NC(=O)[C@H]([C@@H](C)O)NC(=O)[C@H](CC(=O)O)NC(=O)CNC(=O)[C@H](CCCNC(=N)N)NC(=O)[C@@H]2CCCN2C1=O [Cyclic peptide 82, KKKA-(Hcy)-IPRGDTFT(Dab(acetyl))A] (H-KKKA[hCys]IPRGDTFT[Dab]A-OH; linker 5-14 via X2)
Performance evaluation: Stability (residual rate of cyclic peptide after alkali treatment) [1]: A (The residual rate of the cyclic peptide is 70% or more.) | Kd [2, 4]: 50 to 100 nM

C[C@H](NC(=O)[C@H](CCCCN)NC(=O)[C@H](CCCCN)NC(=O)[C@@H](N)CCCCN)C(=O)N[C@H]1CNC(=O)CSC[C@@H](C(=O)O)NC(=O)[C@H](CCCNC(=N)N)NC(=O)[C@H](Cc2ccc(O)cc2)NC(=O)[C@H](CC(N)=O)NC(=O)[C@H](CC(=O)O)NC(=O)CNC(=O)[C@H](CCCNC(=N)N)NC(=O)[C@@H]2CCCN2C(=O)[C@H](CCC(=O)O)NC1=O [Cyclic peptide 166, KKKA(Dap(acetyl))EPRGDNYR(C), reference compound] (H-KKKA[Dap]EPRGDNYRC-OH; linker 5-14 via X1)
Stability (molecule stability, residual rate of the cyclic peptide rank) [1]: D (The residual rate of the cyclic peptide is less than 30%.) | molecule stability (in words) ([1]; summary of Table 9 to Table 13): a practically sufficient molecule stability could be obtained | Kd [2, 3]: < 50 nM

CC[C@H](C)[C@@H]1NC(=O)[C@@H](NC(=O)CNC(=O)[C@H](CCCCN)NC(=O)[C@H](CCCCN)NC(=O)[C@@H](N)CCCCN)CCSCC(=O)NCC[C@@H](C(=O)N[C@@H](C)C(=O)O)NC(=O)[C@H](CCCNC(=N)N)NC(=O)[C@H](Cc2ccccc2)NC(=O)[C@H](CCO)NC(=O)[C@H](CC(=O)O)NC(=O)CNC(=O)[C@H](CCCNC(=N)N)NC(=O)[C@@H]2CCCN2C1=O [Cyclic peptide 73, KKKG-(Hcy)-IPRGD-(HmS)-FR(Dab(acetyl))A] (H-KKKG[hCys]IPRGD[hSer]FR[Dab]A-OH; linker 5-14 via X2)
Performance evaluation: Stability (residual rate of cyclic peptide after alkali treatment) [1]: A (The residual rate of the cyclic peptide is 70% or more.)

C[C@H](NC(=O)[C@@H]1CCNC(=O)CSCC[C@H](NC(=O)CNC(=O)[C@H](CCCCN)NC(=O)[C@H](CCCCN)NC(=O)[C@@H](N)CCCCN)C(=O)N[C@@H](CCc2ccc(O)cc2)C(=O)N2CCC[C@H]2C(=O)N[C@@H](CCCNC(=N)N)C(=O)NCC(=O)N[C@@H](CC(=O)O)C(=O)N[C@@H]([C@@H](C)O)C(=O)N[C@@H](Cc2ccccc2)C(=O)N[C@@H](CCCNC(=N)N)C(=O)N1)C(=O)O [Cyclic peptide 68, KKKG-(Hcy)-(HmY)-PRGDTFR(Dab(acetyl))A] (H-KKKG[hCys][hTyr]PRGDTFR[Dab]A-OH; linker 5-14 via X2)
Performance evaluation: Stability (residual rate of cyclic peptide after alkali treatment) [1]: A (The residual rate of the cyclic peptide is 70% or more.)
